In US8124831B2, “Transgenic mice carrying functional single nucleotide polymorphisms in brain-specific tryptophan hydroxylase” (Duke University, priority 2006, dated 2012):

System: R439H Tph2 knock-in mice
Assay: Tail suspension test after drug administration
Assay type: in vivo, mouse
Conditions: HO Tph2 knock-in mice; 30 min following administration; fluoxetine 5 mg/kg, TDZD 10 mg/kg (i.p.); vs vehicle (FIG. 7)
Method: Tail suspension test: Mice were tested in a tail suspension apparatus (Med-Associates, St. Albans, Vt.) as described (Crowley et al., 2004, Pharmacol. Biochem. Behav. 78:269-274). All mice were weighed and tail-marked 24 hrs before testing. Animals were brought into the testing room 4 hrs before injections. Pilot studies were used to determine the optimal automated threshold settings for immobility by comparing scores rated manually with scores tabulated simultaneously by the apparatus. Behavior was scored as time spent in immobility (sec) for the total period of the test.
Administration of anti-depressants or glycogen synthase kinase 3 inhibitors alleviates behavioral differences. Fluoxetine (Tocris Cookson Inc., Ellisville, Mo.) was dissolved in distilled water. Thiadiazolidinone (TDZD) (Calbiochem, Cambridge, Mass.) was injected (i.p.) following suspension in a minimal amount of Tween and diluted to volume with distilled water as previously described (Beaulieu et al., 2004, Proc. Natl Acad. Sci. USA 101:5099-5104). Corresponding vehicle solutions were injected in control animals. Mice were treated with vehicle or drug 30 min before testing. Behavioral testing was performed as described above.

SMILES | immobility times in the tail suspension test
Cn1sc(=O)n(Cc2ccccc2)c1=O [TDZD, thiadiazolidinone] | comparable reduction of immobility times
CNCCC(Oc1ccc(C(F)(F)F)cc1)c1ccccc1 (centres unmarked) [fluoxetine] | comparable reduction of immobility times
